Measured values as given in US20060111306A1, “DEHYDROEPHIANDROSTERONE AND UBIQUINONE COMPOSITIONS FOR TREATING ASTHMA AND BRONOCONSTRICTION” (priority 1995, published 2006).

Tested on: Intracellular Adenosine in Various Rat Tissues
Experiment: In vivo effect on tissue adenosine levels (HPLC of 1,N6-ethenoadenosine)
Parameters: species or system Fischer 344 rats
Details: rats
Protocol: Folinic acid (50 mg/kg) was administered intraperitoneally once daily for fourteen days. […] Hearts were removed from animals and flash frozen in liquid nitrogen with 10 seconds of death. Liver and lungs were removed en bloc and flash frozen with 30 seconds of death. Brain tissue was subsequently dissected.

Nc1nc(=O)c2c([nH]1)NCC(CNc1ccc(C(=O)N[C@@H](CCC(=O)O)C(=O)O)cc1)N2C=O (mixture of isomers) [Folinic Acid (F.A.), Folinic acid]
effect on adenosine levels, administered alone (in words) (folinic acid alone, all organs studied): increase in adenosine levels for all organs studied
effect of co-administration on steroid-mediated adenosine depletion (in words) (folinic acid co-administered with DHEA or methyltestosterone): completely abrogated steroid-mediated adenosine depletion
